According to ChEMBL document CHEMBL5370693, “Kinases Controlling Stability of the Oncogenic MYCN Protein” (ACS Med Chem Lett, 2023):

Assays:
[1] = molecular target: Phosphatidylinositol 4,5-bisphosphate 3-kinase catalytic subunit beta isoform (Homo sapiens) (UniProt P42338); experiment: Inhibition of PIK3CB (unknown origin) assessed as remaining activity at 5 uM incubated for 1 hr by KINOMEscan competitive binding assay relative to control
[2] = test system: Phosphatidylinositol 4,5-bisphosphate 3-kinase catalytic subunit alpha isoform (Homo sapiens), P42336 [E545A]; experiment: Inhibition of PIK3CA E545A mutant (unknown origin) assessed as remaining activity at 5 uM incubated for 1 hr by KINOMEscan competitive binding assay relative to control
Phosphatidylinositol 4,5-bisphosphate 3-kinase catalytic subunit alpha isoform (Homo sapiens), P42336 [E545A], sequence (P42336 whole entry E545A, canonical isoform): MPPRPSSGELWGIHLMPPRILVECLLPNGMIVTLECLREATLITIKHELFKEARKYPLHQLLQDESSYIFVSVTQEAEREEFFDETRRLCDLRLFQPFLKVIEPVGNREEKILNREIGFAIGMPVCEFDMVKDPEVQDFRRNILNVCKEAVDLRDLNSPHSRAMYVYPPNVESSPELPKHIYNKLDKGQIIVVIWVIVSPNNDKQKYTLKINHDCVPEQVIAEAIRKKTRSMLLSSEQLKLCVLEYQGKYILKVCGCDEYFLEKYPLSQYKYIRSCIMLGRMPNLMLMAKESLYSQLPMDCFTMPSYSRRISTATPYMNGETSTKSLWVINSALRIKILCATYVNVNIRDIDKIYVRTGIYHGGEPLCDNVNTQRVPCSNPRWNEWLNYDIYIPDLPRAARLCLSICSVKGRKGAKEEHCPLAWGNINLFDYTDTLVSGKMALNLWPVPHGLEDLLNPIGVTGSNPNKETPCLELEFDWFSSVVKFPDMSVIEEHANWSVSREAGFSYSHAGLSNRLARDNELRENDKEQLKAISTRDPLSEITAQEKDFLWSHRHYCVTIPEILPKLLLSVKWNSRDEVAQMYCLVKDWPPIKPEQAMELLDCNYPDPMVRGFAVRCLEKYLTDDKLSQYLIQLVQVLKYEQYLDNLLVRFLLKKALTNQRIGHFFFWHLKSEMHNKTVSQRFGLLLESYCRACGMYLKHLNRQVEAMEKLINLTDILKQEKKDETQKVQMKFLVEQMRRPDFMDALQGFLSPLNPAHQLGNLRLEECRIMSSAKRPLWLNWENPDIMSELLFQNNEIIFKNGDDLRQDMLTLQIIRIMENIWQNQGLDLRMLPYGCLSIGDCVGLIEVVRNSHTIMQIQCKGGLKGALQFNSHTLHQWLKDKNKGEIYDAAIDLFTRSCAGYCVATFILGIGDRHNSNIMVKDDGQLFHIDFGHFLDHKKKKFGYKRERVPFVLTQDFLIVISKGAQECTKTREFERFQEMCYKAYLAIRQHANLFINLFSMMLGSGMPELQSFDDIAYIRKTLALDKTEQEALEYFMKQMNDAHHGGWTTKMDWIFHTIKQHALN

[3] = molecular target: T1, Phosphatidylinositol 4,5-bisphosphate 3-kinase catalytic subunit delta isoform (Homo sapiens) (UniProt O00329); experiment: Inhibition of PIK3CD (unknown origin) assessed as remaining activity at 5 uM incubated for 1 hr by KINOMEscan competitive binding assay relative to control
T1 sequence (whole entry): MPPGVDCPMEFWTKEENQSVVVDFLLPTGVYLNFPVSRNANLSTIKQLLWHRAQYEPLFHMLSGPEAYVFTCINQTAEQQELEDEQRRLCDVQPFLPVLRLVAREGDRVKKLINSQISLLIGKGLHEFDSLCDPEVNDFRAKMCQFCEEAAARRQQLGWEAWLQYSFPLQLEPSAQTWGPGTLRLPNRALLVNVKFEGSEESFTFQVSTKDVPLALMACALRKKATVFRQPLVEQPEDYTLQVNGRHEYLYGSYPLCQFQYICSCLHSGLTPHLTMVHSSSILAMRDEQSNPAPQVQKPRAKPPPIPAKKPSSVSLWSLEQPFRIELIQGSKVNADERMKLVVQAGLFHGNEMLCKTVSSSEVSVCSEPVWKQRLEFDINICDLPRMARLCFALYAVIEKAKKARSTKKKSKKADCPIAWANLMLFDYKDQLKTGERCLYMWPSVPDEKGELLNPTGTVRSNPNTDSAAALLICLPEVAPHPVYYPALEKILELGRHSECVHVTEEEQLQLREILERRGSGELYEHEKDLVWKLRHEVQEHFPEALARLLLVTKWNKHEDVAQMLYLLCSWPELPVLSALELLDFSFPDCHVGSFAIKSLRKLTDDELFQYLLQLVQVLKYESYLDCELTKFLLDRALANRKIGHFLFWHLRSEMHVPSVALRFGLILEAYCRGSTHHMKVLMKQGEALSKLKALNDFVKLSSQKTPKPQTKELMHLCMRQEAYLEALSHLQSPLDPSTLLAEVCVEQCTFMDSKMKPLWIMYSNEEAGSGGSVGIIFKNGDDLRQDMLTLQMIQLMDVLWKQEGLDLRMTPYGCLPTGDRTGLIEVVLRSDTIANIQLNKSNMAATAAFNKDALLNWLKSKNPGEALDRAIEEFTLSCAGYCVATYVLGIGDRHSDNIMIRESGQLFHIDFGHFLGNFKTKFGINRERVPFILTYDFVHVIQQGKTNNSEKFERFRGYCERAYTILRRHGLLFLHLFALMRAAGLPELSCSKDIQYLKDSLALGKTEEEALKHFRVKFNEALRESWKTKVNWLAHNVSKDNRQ

[4] = molecular target: Phosphatidylinositol 4,5-bisphosphate 3-kinase catalytic subunit gamma isoform (Homo sapiens) (UniProt P48736); experiment: Inhibition of PIK3CG (unknown origin) assessed as remaining activity at 5 uM incubated for 1 hr by KINOMEscan competitive binding assay relative to control
Phosphatidylinositol 4,5-bisphosphate 3-kinase catalytic subunit gamma isoform (Homo sapiens), sequence (P48736 whole entry, looked up, canonical isoform): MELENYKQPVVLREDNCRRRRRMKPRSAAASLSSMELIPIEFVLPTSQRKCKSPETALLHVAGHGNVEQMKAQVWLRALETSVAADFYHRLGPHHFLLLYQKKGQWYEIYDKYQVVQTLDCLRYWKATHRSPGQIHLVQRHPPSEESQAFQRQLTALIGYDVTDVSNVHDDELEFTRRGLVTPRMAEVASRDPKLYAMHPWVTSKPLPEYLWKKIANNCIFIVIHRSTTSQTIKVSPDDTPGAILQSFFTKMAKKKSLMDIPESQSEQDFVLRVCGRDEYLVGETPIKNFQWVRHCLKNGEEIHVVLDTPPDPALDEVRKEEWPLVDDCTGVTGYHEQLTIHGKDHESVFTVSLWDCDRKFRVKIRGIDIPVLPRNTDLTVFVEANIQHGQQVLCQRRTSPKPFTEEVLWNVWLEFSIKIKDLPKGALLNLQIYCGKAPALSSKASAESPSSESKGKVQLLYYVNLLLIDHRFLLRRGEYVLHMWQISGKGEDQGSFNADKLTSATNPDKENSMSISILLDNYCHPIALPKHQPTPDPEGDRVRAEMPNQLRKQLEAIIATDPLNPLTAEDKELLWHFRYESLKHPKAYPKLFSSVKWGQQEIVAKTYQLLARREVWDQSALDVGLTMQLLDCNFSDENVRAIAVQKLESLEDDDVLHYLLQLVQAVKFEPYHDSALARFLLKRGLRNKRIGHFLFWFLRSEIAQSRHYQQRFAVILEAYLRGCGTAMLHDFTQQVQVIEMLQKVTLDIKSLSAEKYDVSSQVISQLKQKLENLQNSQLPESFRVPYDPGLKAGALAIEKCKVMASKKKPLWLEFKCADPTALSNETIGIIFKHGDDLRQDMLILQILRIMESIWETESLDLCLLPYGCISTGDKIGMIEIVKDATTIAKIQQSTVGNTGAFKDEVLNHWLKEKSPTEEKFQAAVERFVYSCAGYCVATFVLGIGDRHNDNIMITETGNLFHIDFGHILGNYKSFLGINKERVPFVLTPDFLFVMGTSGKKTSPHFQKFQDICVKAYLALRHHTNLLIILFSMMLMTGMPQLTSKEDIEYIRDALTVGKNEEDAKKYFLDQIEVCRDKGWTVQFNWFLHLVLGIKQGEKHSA

[5] = test system: Phosphatidylinositol 4,5-bisphosphate 3-kinase catalytic subunit alpha isoform (Homo sapiens), P42336 [C420R]; experiment: Inhibition of PIK3CA C420R mutant (unknown origin) assessed as remaining activity at 10 uM incubated for 1 hr by KINOMEscan competitive binding assay relative to control
Phosphatidylinositol 4,5-bisphosphate 3-kinase catalytic subunit alpha isoform (Homo sapiens), P42336 [C420R], sequence (P42336 whole entry C420R, canonical isoform): as the sequence (P42336 whole entry E545A, canonical isoform) above, with C420R, A545E counted along it

[6] = molecular target: Phosphatidylinositol 4,5-bisphosphate 3-kinase catalytic subunit beta isoform (Homo sapiens) (UniProt P42338); experiment: Inhibition of PIK3CB (unknown origin) assessed as remaining activity at 10 uM incubated for 1 hr by KINOMEscan competitive binding assay relative to control

Phosphatidylinositol 4,5-bisphosphate 3-kinase catalytic subunit beta isoform (Homo sapiens), sequence (P42338 whole entry, looked up, canonical isoform): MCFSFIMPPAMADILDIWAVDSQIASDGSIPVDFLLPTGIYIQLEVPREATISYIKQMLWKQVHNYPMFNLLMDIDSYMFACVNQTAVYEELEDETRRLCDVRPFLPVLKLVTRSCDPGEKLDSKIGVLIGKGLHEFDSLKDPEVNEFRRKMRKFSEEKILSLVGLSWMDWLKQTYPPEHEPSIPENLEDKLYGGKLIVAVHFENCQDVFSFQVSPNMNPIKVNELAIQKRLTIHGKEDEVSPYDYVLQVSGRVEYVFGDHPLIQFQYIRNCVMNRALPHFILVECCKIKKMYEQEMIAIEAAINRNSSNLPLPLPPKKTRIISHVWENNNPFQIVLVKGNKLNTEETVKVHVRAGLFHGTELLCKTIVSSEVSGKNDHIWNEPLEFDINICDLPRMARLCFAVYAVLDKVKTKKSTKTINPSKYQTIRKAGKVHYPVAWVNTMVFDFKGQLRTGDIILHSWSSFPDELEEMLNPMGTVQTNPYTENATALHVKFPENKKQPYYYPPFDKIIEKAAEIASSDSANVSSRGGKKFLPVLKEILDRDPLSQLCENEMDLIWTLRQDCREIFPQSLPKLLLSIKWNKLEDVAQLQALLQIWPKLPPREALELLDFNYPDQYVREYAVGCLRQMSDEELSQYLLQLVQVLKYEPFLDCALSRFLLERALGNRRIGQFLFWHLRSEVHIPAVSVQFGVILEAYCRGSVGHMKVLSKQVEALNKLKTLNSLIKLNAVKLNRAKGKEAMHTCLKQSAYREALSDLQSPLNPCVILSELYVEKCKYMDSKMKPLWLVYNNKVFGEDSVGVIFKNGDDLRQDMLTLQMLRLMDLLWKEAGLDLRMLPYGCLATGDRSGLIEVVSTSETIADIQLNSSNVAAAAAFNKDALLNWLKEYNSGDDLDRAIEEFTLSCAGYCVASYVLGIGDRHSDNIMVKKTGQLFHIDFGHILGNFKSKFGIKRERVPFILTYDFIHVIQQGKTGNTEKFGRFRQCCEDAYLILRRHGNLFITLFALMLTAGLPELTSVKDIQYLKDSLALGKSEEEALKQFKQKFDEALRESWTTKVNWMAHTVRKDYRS

O=c1[nH]c2ccc(Cl)cc2c(N[C@@H]2CN3CCC2CC3)c1-c1nc2ccccc2[nH]1
Activity [1]: 83% | Activity [2]: 100% | Activity [3]: 57% | Activity [4]: 21%

NC(=O)Nc1cc(-c2cccc(F)c2)sc1C(=O)N[C@H]1CCCNC1
Activity [5]: 97% | Activity [6]: 87%
